{"source": "patent US20070009566A1", "about": "“Method and apparatus for treating bacterial infections in devices” (priority 2005, published 2007)", "key": {"[1]": {"test_system": "S. aureus strain Smith diffuse (SD), adherent organisms", "assay": "microbe, parasite or virus in culture", "conditions": "Staphylococcus aureus"}, "[2]": {"test_system": "S. aureus strain Smith diffuse", "assay": "Rat central venous catheter (CVC)-associated infection model, lock technique", "conditions": "day seven; for Quantitative blood culture / Quantitative catheters/venous tissues culture: mean ± S.D.; for Antimicrobial activity in quantitative peripheral blood cultures (in words): at concentration of MBC for adherent cells, compared with untreated control"}, "[3]": {"test_system": "S. aureus strain Smith diffuse (SD), planktonic organisms", "assay": "Susceptibility testing by classical method (microbroth dilution, MIC/MBC, planktonic organisms)", "assay_type": "cell-based", "conditions": "10 μg of RIP pre-treatment (in 10 μL MH broth/well), 30 minutes", "description": "(§1) Organisms: The inventors chose the S. aureus strain Smith diffuse (SD).\nNational Committee for Clinical Laboratory Standards, Fifth Edition, Approved Standard M7-A5, Wayne, Pa. (2001)."}, "[4]": {"test_system": "S. aureus strain Smith diffuse (SD), adherent organisms"}, "[5]": {"test_system": "S. aureus strain Smith diffuse (SD) biofilm", "assay": "Adherent biofilm formation (crystal violet, OD 570 nm)", "assay_type": "cell-based", "conditions": "with addition of RIP into each well; data not shown", "protocol": "as §1\nAdherent biofilm formation for susceptibility testing: To develop a biofilm, 50 μL of Triptic Soy broth (“TSB”) containing 10^6 CFU/mL of bacteria was added under aseptic conditions to each well of a tissue culture-treated polystyrene 96-well plate containing 150 μL of TSB-2% glucose. […] To evaluate the formation of adherent biofilm, the remaining attached bacteria were fixed with 0.2 mL of 99% methanol per well, and after 15 min, plates were emptied and left to dry. […] Stepanovic et al., J Microbiol Methods 40:175-179 (2000); and Christensen et al., J Clin Microbiol 22:996-1006 (1985). The plates were air dried. The dye bound to the adherent cells was solubilized with 0.2 mL of 33% (v/v) glacial acetic acid per well."}, "[6]": {"conditions": "read-out: MBC, adherent organisms, 10 μg of RIP pre-treatment (in 10 μL MH broth/well), 30 minutes"}, "[7]": {"conditions": "read-out: MBC, adherent organisms, without RIP pre-treatment"}, "[8]": {"conditions": "read-out: MIC, adherent organisms, 10 μg of RIP pre-treatment (in 10 μL MH broth/well), 30 minutes"}, "[9]": {"conditions": "read-out: MIC, adherent organisms, without RIP pre-treatment"}, "[10]": {"conditions": "antibiotic lock 8.00 μg/ml (MBC for adherent cells), 1 hour dwell"}, "[11]": {"conditions": "antibiotic lock 1,024 μg/ml, 1 hour dwell"}, "[12]": {"conditions": "10 μg of RIP pre-treatment (in 10 μL MH broth/well), 30 minutes"}}, "note": "Where two headings read alike, the source gives them in different places. Where no end group is shown, it is not given here."}
{"molecule": "C[C@@H](O)[C@H]1C(=O)N2C(C(=O)O)=C(SCCN=CN)C[C@H]12", "note": "[Imipenem, imipenem]", "values": [{"measurement": "MBC", "setting": "[1]; [6]", "value": 2, "unit": "µg/mL"}, {"measurement": "MBC", "setting": "[1]; [7]", "value": 8, "unit": "µg/mL"}, {"measurement": "MIC", "setting": "[1]; [8]", "value": 0.5, "unit": "µg/mL"}, {"measurement": "MIC", "setting": "[1]; [9]", "value": 1, "unit": "µg/mL"}, {"measurement": "Quantitative blood culture", "setting": "[2]; [10]", "value": "5.8 × 10^3 ± 1.2 × 10^3 CFU/ml"}, {"measurement": "Quantitative catheters/venous tissues culture", "setting": "[2]; [10]", "value": "6.9 × 10^6 ± 2.1 × 10^6 CFU/ml"}, {"measurement": "Quantitative blood culture", "setting": "[2]; [11]", "value": "5.7 × 10^1 ± 1.2 × 10^1bc CFU/ml"}, {"measurement": "Quantitative catheters/venous tissues culture", "setting": "[2]; [11]", "value": "6.0 × 10^5 ± 1.9 × 10^5bc CFU/ml"}, {"measurement": "MBC, planktonic organisms", "setting": "[3]", "value": 1.00, "unit": "µg/mL"}, {"measurement": "MIC, planktonic organisms", "setting": "[3]", "value": 0.50, "unit": "µg/mL"}, {"measurement": "MIC, adherent organisms", "setting": "[4]; [12]", "value": 0.50, "unit": "µg/mL"}, {"measurement": "MIC, adherent organisms", "setting": "[4]; without RIP pre-treatment", "value": 1.00, "unit": "µg/mL"}]}
{"molecule": "CN[C@H](CC(C)C)C(=O)N[C@H]1C(=O)N[C@@H](CC(N)=O)C(=O)N[C@H]2C(=O)N[C@H]3C(=O)N[C@H](C(=O)N[C@H](C(=O)O)c4cc(O)cc(O)c4-c4cc3ccc4O)[C@H](O)c3ccc(c(Cl)c3)Oc3cc2cc(c3O[C@@H]2O[C@H](CO)[C@@H](O)[C@H](O)[C@H]2O[C@H]2C[C@](C)(N)[C@H](O)[C@H](C)O2)Oc2ccc(cc2Cl)[C@H]1O", "note": "[Vancomycin]", "values": [{"measurement": "MBC", "setting": "[1]; [6]", "value": 2, "unit": "µg/mL"}, {"measurement": "MBC", "setting": "[1]; [7]", "value": 16, "unit": "µg/mL"}, {"measurement": "MIC", "setting": "[1]; [8]", "value": 1, "unit": "µg/mL"}, {"measurement": "MIC", "setting": "[1]; [9]", "value": 2, "unit": "µg/mL"}, {"measurement": "Quantitative blood culture", "setting": "[2]; [11]", "value": "5.3 × 10^1 ± 1.1 × 10^1bc CFU/ml"}, {"measurement": "Quantitative catheters/venous tissues culture", "setting": "[2]; [11]", "value": "5.4 × 10^5 ± 1.6 × 10^5bc CFU/ml"}, {"measurement": "Antimicrobial activity in quantitative peripheral blood cultures (in words)", "setting": "[2]", "value": "weak antimicrobial activity"}, {"measurement": "MBC, planktonic organisms", "setting": "[3]", "value": 2.00, "unit": "µg/mL"}, {"measurement": "MIC, planktonic organisms", "setting": "[3]", "value": 1.00, "unit": "µg/mL"}, {"measurement": "MIC, adherent organisms", "setting": "[4]; [12]", "value": 1.00, "unit": "µg/mL"}, {"measurement": "MIC, adherent organisms", "setting": "[4]; without RIP pre-treatment", "value": 2.00, "unit": "µg/mL"}]}
{"molecule": "YSPWTNF-NH2 [RIP, YSPWTNF-NH2]", "values": [{"measurement": "Quantitative blood culture", "setting": "[2]; RIP-impregnated CVC alone", "value": "3.4 × 10^1 ± 0.8 × 10^1b CFU/ml"}, {"measurement": "Quantitative catheters/venous tissues culture", "setting": "[2]; RIP-impregnated CVC alone", "value": "1.4 × 10^3 ± 0.3 × 10^3b CFU/ml"}, {"measurement": "Slime production (photometrical method)", "setting": "[5]", "value": "much lower"}]}
{"molecule": "O=C(O)c1cn(C2CC2)c2cc(N3CCNCC3)c(F)cc2c1=O", "note": "[Ciprofloxacin, ciprofloxacin]", "values": [{"measurement": "Quantitative blood culture", "setting": "[2]; [11]", "value": "6.6 × 10^1 ± 1.4 × 10^1bc CFU/ml"}, {"measurement": "Quantitative catheters/venous tissues culture", "setting": "[2]; [11]", "value": "7.4 × 10^5 ± 2.1 × 10^5bc CFU/ml"}, {"measurement": "Antimicrobial activity in quantitative peripheral blood cultures (in words)", "setting": "[2]", "value": "weak antimicrobial activity"}]}
